Legend:
[1] = system: male adult Sprague Dawley rats; experiment: Sleep-wake organization in rats, polysomnographic recording (EEG, EOG, EMG, body movement) for 16 hours after acute i.p. administration; type: in vivo, rat; details: rats; for Duration (min) Active wake / Duration (min) Deep sleep / Duration (min) Light sleep / Duration (min) Passive wake / Duration (min) REM sleep / Duration (min) intermediate stage / ISWS/TST (%) / Latency (min) ISWS / Latency (min) REM sleep / Latency (min) dSWS / REMS/TST (%) / Shifts (number) Shift from ISWS to AW / Shifts (number) Shift from ISWS to PW / Shifts (number) Shift from REMS to AW / Shifts (number) Shift from REMS to PW / Shifts (number) Shift from dSWS to AW / Shifts (number) Shift from dSWS to PW / Total sleep time TST / dSWS/TST (%): 16 hours recording period
Mice = experiment: Spontaneous Locomotor Activity in Mice and Rats model (mice); type: in vivo, mouse
Rats = experiment: Spontaneous Locomotor Activity in Mice and Rats model (rats); type: in vivo, rat
[2] = 3 mg/kg i.p., 16 hours recording
[3] = 10 mg/kg i.p., first 90 minutes of the recording period
[4] = 30 mg/kg i.p., 16 hours recording
[5] = 30 mg/kg i.p., vs vehicle, 16-h post-injection period

Question: For `NC(=O)OCC(N)Cc1ccccc1` [R228060, (R)-(beta-amino-benzenepropyl) carbamate], which “increased drive to wakefulness from deep sleep” value [1, 2] is on record?
Answer: +15%

Question: And the “increased drive to wakefulness from light sleep” value [1, 2]?
Answer: +46%

Question: What about the “Duration (min) Active wake” value ([1]; 3 mg/kg i.p.) of the same compound?
Answer: 290.0 min

Question: And the “Duration (min) Deep sleep” value ([1]; 3 mg/kg i.p.)?
Answer: 125.0 min

Question: And the “Duration (min) Light sleep” value ([1]; 3 mg/kg i.p.)?
Answer: 374.7 min

Question: And the “Duration (min) Passive wake” value ([1]; 3 mg/kg i.p.)?
Answer: 79.5 min

Question: And the “Duration (min) REM sleep” value ([1]; 3 mg/kg i.p.)?
Answer: 84.0 min

Question: And the “Duration (min) intermediate stage” value ([1]; 3 mg/kg i.p.)?
Answer: 2.9 min

Question: What about the “ISWS/TST (%)” value ([1]; 3 mg/kg i.p.) of the same compound?
Answer: 64.3 ± 3.3%

Question: What about the “Latency (min) ISWS” value ([1]; 3 mg/kg i.p.) of the same compound?
Answer: 15.6 ± 4.1 min

Question: What about the “Latency (min) REM sleep” value ([1]; 3 mg/kg i.p.) of the same compound?
Answer: 66.0 ± 11.8 min

Question: What about the “Latency (min) dSWS” value ([1]; 3 mg/kg i.p.) of the same compound?
Answer: 42.0 ± 8.5 min

Question: And the “REMS/TST (%)” value ([1]; 3 mg/kg i.p.)?
Answer: 14.4 ± 1.0%

Question: And the “Shifts (number) Shift from ISWS to AW” value ([1]; 3 mg/kg i.p.)?
Answer: 217.8 number

Question: And the “Shifts (number) Shift from ISWS to PW” value ([1]; 3 mg/kg i.p.)?
Answer: 78.1 number

Question: And the “Shifts (number) Shift from REMS to AW” value ([1]; 3 mg/kg i.p.)?
Answer: 78.0 number

Question: What about the “Shifts (number) Shift from REMS to PW” value ([1]; 3 mg/kg i.p.) of the same compound?
Answer: 3.7 number

Question: What about the “Shifts (number) Shift from dSWS to AW” value ([1]; 3 mg/kg i.p.) of the same compound?
Answer: 9.7 number

Question: And the “Shifts (number) Shift from dSWS to PW” value ([1]; 3 mg/kg i.p.)?
Answer: 6.6 number

Question: What about the “Total sleep time TST” value ([1]; 3 mg/kg i.p.) of the same compound?
Answer: 586.6 ± 20.0 min

Question: And the “dSWS/TST (%)” value ([1]; 3 mg/kg i.p.)?
Answer: 20.8 ± 3.8%

Question: What about the “change in total time spent in light sleep” value (shortened to “change … in light sleep”) ([1]; 3 mg/kg, vs vehicle, 16 hours recording) of the same compound?
Answer: +26%

Question: And the “increase in shifts from REM sleep towards active wakefulness” value ([1]; 10 mg/kg i.p., 16 hours recording)?
Answer: +16%

Question: And the “Duration (min) Active wake” value ([1]; 10 mg/kg i.p.)?
Answer: 305.5 min

Question: And the “Duration (min) Deep sleep” value ([1]; 10 mg/kg i.p.)?
Answer: 104.0 min

Question: And the “Duration (min) Light sleep” value ([1]; 10 mg/kg i.p.)?
Answer: 366.6 min

Question: What about the “Duration (min) Passive wake” value ([1]; 10 mg/kg i.p.) of the same compound?
Answer: 73.4 min

Question: And the “Duration (min) REM sleep” value ([1]; 10 mg/kg i.p.)?
Answer: 102.3 min

Question: And the “Duration (min) intermediate stage” value ([1]; 10 mg/kg i.p.)?
Answer: 5.2 min

Question: What about the “ISWS/TST (%)” value ([1]; 10 mg/kg i.p.) of the same compound?
Answer: 63.5 ± 2.7%

Question: What about the “Latency (min) ISWS” value ([1]; 10 mg/kg i.p.) of the same compound?
Answer: 30.4 ± 7.9 min

Question: And the “Latency (min) REM sleep” value ([1]; 10 mg/kg i.p.)?
Answer: 87.5 ± 14.5 min

Question: What about the “Latency (min) dSWS” value ([1]; 10 mg/kg i.p.) of the same compound?
Answer: 127.2 ± 67.1 min

Question: And the “REMS/TST (%)” value ([1]; 10 mg/kg i.p.)?
Answer: 17.8 ± 1.0%

Question: What about the “Shifts (number) Shift from ISWS to AW” value ([1]; 10 mg/kg i.p.) of the same compound?
Answer: 204.5 number

Question: What about the “Shifts (number) Shift from ISWS to PW” value ([1]; 10 mg/kg i.p.) of the same compound?
Answer: 84.4 number

Question: What about the “Shifts (number) Shift from REMS to AW” value ([1]; 10 mg/kg i.p.) of the same compound?
Answer: 94.1 number

Question: What about the “Shifts (number) Shift from REMS to PW” value ([1]; 10 mg/kg i.p.) of the same compound?
Answer: 8.9 number

Question: And the “Shifts (number) Shift from dSWS to AW” value ([1]; 10 mg/kg i.p.)?
Answer: 4.2 number

Question: What about the “Shifts (number) Shift from dSWS to PW” value ([1]; 10 mg/kg i.p.) of the same compound?
Answer: 12.5 number

Question: What about the “Total sleep time TST” value ([1]; 10 mg/kg i.p.) of the same compound?
Answer: 578.1 ± 22.6 min

Question: And the “dSWS/TST (%)” value ([1]; 10 mg/kg i.p.)?
Answer: 17.7 ± 3.1%

Question: What about the deep sleep duration [1, 3] of the same compound?
Answer: significant decrease

Question: What about the “time spent in active wakefulness” value [1, 3] of the same compound?
Answer: increase

Question: And the “change … in light sleep” value ([1]; 10 mg/kg, vs vehicle, 16 hours recording)?
Answer: +24%

Question: What about the “overall profile of effects compared with amphetamine at 1 mg/kg (effect pattern, size and duration)” value ([1]; 30 mg/kg) of the same compound?
Answer: remarkably similar

Question: What about the “rebound effect (increase in time spent in deep sleep), hours following administration” value ([1]; 30 mg/kg) of the same compound?
Answer: 4 to 10 h

Question: What about the “mean durations of the sleep wake states (active wakefulness, passive wakefulness, light sleep, REM sleep)” value ([1]; 30 mg/kg i.p.) of the same compound?
Answer: not modified

Question: What about the “change in number of REM sleep epochs” value [1, 4] of the same compound?
Answer: −24%

Question: And the “change in number of active wake epochs” value [1, 4]?
Answer: +19%

Question: What about the “change in number of light sleep epochs” value [1, 4] of the same compound?
Answer: −23%

Question: And the “change in number of passive wakefulness epochs” value [1, 4]?
Answer: −30%

Question: What about the “Duration (min) Active wake” value ([1]; 30 mg/kg i.p.) of the same compound?
Answer: 371.6 min

Question: And the “Duration (min) Deep sleep” value ([1]; 30 mg/kg i.p.)?
Answer: 214.9 min

Question: What about the “Duration (min) Light sleep” value ([1]; 30 mg/kg i.p.) of the same compound?
Answer: 235.8 min

Question: What about the “Duration (min) Passive wake” value ([1]; 30 mg/kg i.p.) of the same compound?
Answer: 57.3 min

Question: What about the “Duration (min) REM sleep” value ([1]; 30 mg/kg i.p.) of the same compound?
Answer: 72.9 min

Question: What about the “Duration (min) intermediate stage” value ([1]; 30 mg/kg i.p.) of the same compound?
Answer: 4.0 min

Question: And the “ISWS/TST (%)” value ([1]; 30 mg/kg i.p.)?
Answer: 44.9 ± 2.9%

Question: What about the “Latency (min) ISWS” value ([1]; 30 mg/kg i.p.) of the same compound?
Answer: 73.6 ± 25.7 min

Question: What about the “Latency (min) REM sleep” value ([1]; 30 mg/kg i.p.) of the same compound?
Answer: 251.8 ± 32.0 min

Question: And the “Latency (min) dSWS” value ([1]; 30 mg/kg i.p.)?
Answer: 174.6 ± 12.3 min

Question: What about the “REMS/TST (%)” value ([1]; 30 mg/kg i.p.) of the same compound?
Answer: 13.7 ± 1.3 %

Question: And the “Shifts (number) Shift from ISWS to AW” value ([1]; 30 mg/kg i.p.)?
Answer: 221.9 number

Question: And the “Shifts (number) Shift from ISWS to PW” value ([1]; 30 mg/kg i.p.)?
Answer: 74.2 number

Question: And the “Shifts (number) Shift from REMS to AW” value ([1]; 30 mg/kg i.p.)?
Answer: 65.1 number

Question: What about the “Shifts (number) Shift from REMS to PW” value ([1]; 30 mg/kg i.p.) of the same compound?
Answer: 4.1 number

Question: What about the “Shifts (number) Shift from dSWS to AW” value ([1]; 30 mg/kg i.p.) of the same compound?
Answer: 8.7 number

Question: And the “Shifts (number) Shift from dSWS to PW” value ([1]; 30 mg/kg i.p.)?
Answer: 17.6 number

Question: And the “Total sleep time TST” value ([1]; 30 mg/kg i.p.)?
Answer: 527.0 ± 7.9 min

Question: And the “dSWS/TST (%)” value ([1]; 30 mg/kg i.p.)?
Answer: 39.2 ± 2.9 %

Question: And the active wakefulness ([1]; 30 mg/kg i.p., first 3 hours following the administration)?
Answer: significant enhancement

Question: And the “change in total time spent in REM sleep” value [1, 5]?
Answer: −25%

Question: And the “change in total time spent in active wakefulness” value [1, 5]?
Answer: +19%

Question: What about the “change … in light sleep” value [1, 5] of the same compound?
Answer: −20%

Question: What about the “change in total time spent in passive wakefulness” value [1, 5] of the same compound?
Answer: −29%

Question: What about the “active wakefulness at the expense of time spent in light sleep, deep sleep and REM sleep” value ([1]; 30 mg/kg, first 3 to 4 hours after the administration) of the same compound?
Answer: strongly increased

Question: What about the “changes in vigilance states” value ([1]; 3 and 10 mg/kg) of the same compound?
Answer: Minor changes

Question: What about the “duration of central activity” value ([1]; after intraperitoneal injection) of the same compound?
Answer: at least 4 hours

Question: What about the “peak in effect, time post administration” value ([1]; i.p.) of the same compound?
Answer: around 2 hours

Question: And the onset of activity ([1]; i.p., time following administration)?
Answer: ~30 min

Question: And the “Spontaneous Locomotor Activity” value (Mice)?
Answer: stimulant or energizing effects

Question: What about the “Spontaneous Locomotor Activity” value (Rats) of the same compound?
Answer: stimulant or energizing effects
